Patent US20040082635A1, “Fused cyclic compounds and medicinal use thereof” (priority 2001, published 2004)

What follows are molecules tested against T1, HCV polymerase (Hepatitis C virus genotype 1b, UniProt P26663) (assay: biochemical). Conditions: read-out: HCV polymerase inhibitory activity IC50.
T1 construct: a region encoding NS5B (591 amino acids; J Virol 1991 Mar, 65(3), 1105-13) was amplified by PCR; 6 His (N); made in house; host or cells: Escherichia coli
T1 sequence (P26663 2420-3010): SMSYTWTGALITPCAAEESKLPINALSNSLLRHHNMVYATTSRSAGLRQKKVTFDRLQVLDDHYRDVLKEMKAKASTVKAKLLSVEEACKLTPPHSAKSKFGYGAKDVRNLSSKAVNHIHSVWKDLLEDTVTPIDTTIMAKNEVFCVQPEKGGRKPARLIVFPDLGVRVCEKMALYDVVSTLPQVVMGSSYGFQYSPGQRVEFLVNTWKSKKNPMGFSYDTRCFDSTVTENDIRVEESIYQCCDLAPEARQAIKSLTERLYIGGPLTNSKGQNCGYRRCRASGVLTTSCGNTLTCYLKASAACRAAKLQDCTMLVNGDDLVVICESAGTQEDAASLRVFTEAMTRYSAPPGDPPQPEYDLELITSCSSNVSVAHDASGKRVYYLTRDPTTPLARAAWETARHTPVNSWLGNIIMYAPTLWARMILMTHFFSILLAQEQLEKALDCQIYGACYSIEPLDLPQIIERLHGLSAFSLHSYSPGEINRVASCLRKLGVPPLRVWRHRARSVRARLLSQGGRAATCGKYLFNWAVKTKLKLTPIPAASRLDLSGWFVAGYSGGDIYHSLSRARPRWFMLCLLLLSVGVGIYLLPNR

**Q.** Which IC50 does the source give for `O=C(O)c1ccc2c(c1)nc(-c1ccc(OCc3ccccc3)nc1)n2C1CCCCC1` [Example 100, 2-(2-benzyloxy-5-pyridyl)-1-cyclohexylbenzimidazole-5-carboxylic acid] here?
**A.** 780 nM

**Q.** `O=C(O)c1ccc2c(c1)nc(-c1ccc(OCCc3cccc4ccccc34)cc1)n2C1CCCCC1` [Example 103, 1-cyclohexyl-2-{4-[2-(1-naphthyl)ethoxy]phenyl}benzimidazole-5-carboxylic acid] was tested. Which IC50 did it give?
**A.** 170 nM

**Q.** For `O=C(O)c1ccc2c(c1)nc(-c1ccc(Oc3ccccc3OCc3ccccc3)cc1)n2C1CCCCC1` [Example 104, 2-[4-(2-benzyloxyphenoxy)phenyl]-1-cyclohexylbenzimidazole-5-carboxylic acid], which IC50 is on record?
**A.** 73 nM

**Q.** With `O=C(O)c1ccc2c(c1)nc(-c1ccc(Oc3cccc(OCc4ccccc4)c3)cc1)n2C1CCCCC1` [Example 105, 2-[4-(3-benzyloxyphenoxy)phenyl]-1-cyclohexylbenzimidazole-5-carboxylic acid] as the molecule, how does the IC50 read?
**A.** 76 nM

**Q.** With `O=C(O)c1ccc2c(c1)nc(-c1ccc(Oc3ccccc3O)cc1)n2C1CCCCC1` [Example 106, 1-cyclohexyl-2-[4-(2-hydroxyphenoxy)phenyl]benzimidazole-5-carboxylic acid] as the molecule, how does the IC50 read?
**A.** 400 nM

**Q.** `O=C(O)c1ccc2c(c1)nc(-c1ccc(Oc3cccc(O)c3)cc1)n2C1CCCCC1` [Example 107, 1-cyclohexyl-2-[4-(3-hydroxyphenoxy)phenyl]benzimidazole-5-carboxylic acid] was tested. Which IC50 did it give?
**A.** 110 nM

**Q.** For `COc1ccccc1Oc1ccc(-c2nc3cc(C(=O)O)ccc3n2C2CCCCC2)cc1` [Example 108, 1-cyclohexyl-2-[4-(2-methoxyphenoxy)phenyl]benzimidazole-5-carboxylic acid], which IC50 is on record?
**A.** 210 nM

**Q.** How did the IC50 turn out when `COc1cccc(Oc2ccc(-c3nc4cc(C(=O)O)ccc4n3C3CCCCC3)cc2)c1` [Example 109, 1-cyclohexyl-2-[4-(3-methoxyphenoxy)phenyl]benzimidazole-5-carboxylic acid] was run?
**A.** 110 nM

**Q.** How did the IC50 turn out when `CCCOc1ccccc1Oc1ccc(-c2nc3cc(C(=O)O)ccc3n2C2CCCCC2)cc1` [Example 110, 1-cyclohexyl-2-[4-(2-propoxyphenoxy)phenyl]benzimidazole-5-carboxylic acid] was run?
**A.** 240 nM

**Q.** For `CCCOc1cccc(Oc2ccc(-c3nc4cc(C(=O)O)ccc4n3C3CCCCC3)cc2)c1` [Example 111, 1-cyclohexyl-2-[4-(3-propoxyphenoxy)phenyl]benzimidazole-5-carboxylic acid], which IC50 is on record?
**A.** 140 nM

**Q.** For `CC(C)=CCOc1ccccc1Oc1ccc(-c2nc3cc(C(=O)O)ccc3n2C2CCCCC2)cc1` [Example 112, 1-cyclohexyl-2-{4-[2-(3-methyl-2-butenyloxy)phenoxy]phenyl}-benzimidazole-5-carboxylic acid], which IC50 is on record?
**A.** 110 nM

**Q.** Which IC50 does the source give for `CC(C)=CCOc1cccc(Oc2ccc(-c3nc4cc(C(=O)O)ccc4n3C3CCCCC3)cc2)c1` [Example 113, 1-cyclohexyl-2-{4-[3-(3-methyl-2-butenyloxy)phenoxy]phenyl}-benzimidazole-5-carboxylic acid] here?
**A.** 71 nM

**Q.** Which IC50 does the source give for `CC(C)CCOc1ccccc1Oc1ccc(-c2nc3cc(C(=O)O)ccc3n2C2CCCCC2)cc1` [Example 114, 1-cyclohexyl-2-[4-(2-isopentyloxyphenoxy)phenyl]benzimidazole-5-carboxylic acid] here?
**A.** 560 nM

**Q.** How did the IC50 turn out when `CC(C)CCOc1cccc(Oc2ccc(-c3nc4cc(C(=O)O)ccc4n3C3CCCCC3)cc2)c1` [Example 115, 1-cyclohexyl-2-[4-(3-isopentyloxyphenoxy)phenyl]benzimidazole-5-carboxylic acid] was run?
**A.** 170 nM

**Q.** For `O=C(O)c1ccc2c(c1)nc(-c1ccc(OCc3ccccc3-c3ccc(C(F)(F)F)cc3)cc1)n2C1CCCCC1` [Example 117, 1-cyclohexyl-2-{4-[2-(4-trifluoromethylphenyl)benzyloxy]-phenyl}benzimidazole-5-carboxylic acid], which IC50 is on record?
**A.** 75 nM

**Q.** `O=C(O)c1ccc2c(c1)nc(-c1ccc(OC(c3ccc(Cl)cc3)c3ccc(Cl)cc3)cc1)n2C1CCCCC1` [Example 118, 2-{4-[bis(4-chlorophenyl)methoxy]phenyl}-1-cyclohexylbenzimidazole-5-carboxylic acid] was tested. Which IC50 did it give?
**A.** 140 nM

**Q.** `COc1ccc(CCOc2ccc(-c3nc4cc(C(=O)O)ccc4n3C3CCCCC3)cc2)cc1` [Example 119, 1-cyclohexyl-2-{4-[2-(4-methoxyphenyl)ethoxy]phenyl}-benzimidazole-5-carboxylic acid] was tested. Which IC50 did it give?
**A.** 130 nM

**Q.** Which IC50 does the source give for `COc1cccc(CCOc2ccc(-c3nc4cc(C(=O)O)ccc4n3C3CCCCC3)cc2)c1` [Example 121, 1-cyclohexyl-2-{4-[2-(3-methoxyphenyl)ethoxy]phenyl}-benzimidazole-5-carboxylic acid] here?
**A.** 190 nM

**Q.** For `O=C(O)c1ccc2c(c1)nc(-c1ccc(OCc3ccccc3)cc1)n2C1CCCCCC1` [Example 122, 2-(4-benzyloxyphenyl)-1-cycloheptylbenzimidazole-5-carboxylic acid], which IC50 is on record?
**A.** 510 nM

**Q.** With `O=C(O)c1ccc2c(c1)nc(-c1ccc(Oc3ccccc3OCCc3ccccc3)cc1)n2C1CCCCC1` [Example 123, 1-cyclohexyl-2-[4-(2-phenethyloxyphenoxy)phenyl]benzimidazole-5-carboxylic acid] as the molecule, how does the IC50 read?
**A.** 100 nM

**Q.** Which IC50 does the source give for `O=C(O)c1ccc2c(c1)nc(-c1ccc(Oc3cccc(OCCc4ccccc4)c3)cc1)n2C1CCCCC1` [Example 124, 1-cyclohexyl-2-[4-(3-phenethyloxyphenoxy)phenyl]benzimidazole-5-carboxylic acid] here?
**A.** 91 nM

**Q.** `O=C(O)c1ccc2c(c1)nc(-c1ccc(OCC(c3ccccc3)c3ccccc3)cc1)n2C1CCCCC1` [Example 125, 1-cyclohexyl-2-[4-(2,2-diphenylethoxy)phenyl]benzimidazole-5-carboxylic acid] was tested. Which IC50 did it give?
**A.** 120 nM

**Q.** How did the IC50 turn out when `O=C(O)c1ccc2c(c1)nc(-c1ccc(Oc3ccccc3Oc3ccccc3)cc1)n2C1CCCCC1` [Example 128, 1-cyclohexyl-2-[4-(2-phenoxyphenoxy)phenyl]benzimidazole-5-carboxylic acid] was run?
**A.** 140 nM

**Q.** `O=C(O)c1ccc2c(c1)nc(-c1ccc(OCc3ccccc3-c3ccc(C(F)(F)F)cc3)cc1F)n2C1CCCCC1` [Example 131, 1-cyclohexyl-2-{2-fluoro-4-[2-(4-trifluoromethylphenyl)-benzyloxy]phenyl}benzimidazole-5-carboxylic acid] was tested. Which IC50 did it give?
**A.** 46 nM

**Q.** `O=C(O)c1ccc2c(c1)nc(-c1ccc(Oc3ccc(OCc4ccccc4)cc3)cc1)n2C1CCCCC1` [Example 132, 2-[4-(4-benzyloxyphenoxy)phenyl]-1-cyclohexylbenzimidazole-5-carboxylic acid] was tested. Which IC50 did it give?
**A.** 55 nM

**Q.** Which IC50 does the source give for `Cc1ccc(C(Oc2ccc(-c3nc4cc(C(=O)O)ccc4n3C3CCCCC3)cc2)c2ccc(C)cc2)cc1` [Example 133, 2-{4-[bis(4-methylphenyl)methoxy]phenyl}-1-cyclohexylbenzimidazole-5-carboxylic acid] here?
**A.** 120 nM

**Q.** How did the IC50 turn out when `O=C(O)c1ccc2c(c1)nc(-c1ccc(OC(c3ccc(F)cc3)c3ccc(F)cc3)cc1)n2C1CCCCC1` [Example 134, 2-{4-[bis(4-fluorophenyl)methoxy]phenyl}-1-cyclohexylbenzimidazole-5-carboxylic acid] was run?
**A.** 71 nM

**Q.** `O=C(O)c1ccc2c(c1)nc(-c1ccc(OCCc3cccc(OCc4ccccc4)c3)cc1)n2C1CCCCC1` [Example 139, 2-{4-[2-(3-benzyloxyphenyl)ethoxy]phenyl}-1-cyclohexylbenzimidazole-5-carboxylic acid] was tested. Which IC50 did it give?
**A.** 260 nM

**Q.** With `O=C(O)COc1ccccc1Oc1ccc(-c2nc3cc(C(=O)O)ccc3n2C2CCCCC2)cc1` [Example 140, 2-[4-(2-carboxymethyloxyphenoxy)phenyl]-1-cyclohexylbenzimidazole-5-carboxylic acid] as the molecule, how does the IC50 read?
**A.** 110 nM

**Q.** How did the IC50 turn out when `O=C(O)COc1cccc(Oc2ccc(-c3nc4cc(C(=O)O)ccc4n3C3CCCCC3)cc2)c1` [Example 141, 2-[4-(3-carboxymethyloxyphenoxy)phenyl]-1-cyclohexylbenzimidazole-5-carboxylic acid] was run?
**A.** 430 nM

**Q.** For `Cc1cc(OCc2ccccc2-c2ccc(C(F)(F)F)cc2)ccc1-c1nc2cc(C(=O)O)ccc2n1C1CCCCC1` [Example 144, 1-cyclohexyl-2-{2-methyl-4-[2-(4-trifluoromethylphenyl)-benzyloxy]phenyl}benzimidazole-5-carboxylic acid], which IC50 is on record?
**A.** 190 nM

**Q.** `CC(C)(C)c1ccc(-c2ccc(Cl)cc2COc2ccc(-c3nc4cc(C(=O)O)ccc4n3C3CCCCC3)cc2)cc1` [Example 145, 2-{4-[2-(4-tert-butylphenyl)-5-chlorobenzyloxy]phenyl}-1-cyclohexylbenzimidazole-5-carboxylic acid] was tested. Which IC50 did it give?
**A.** 88 nM

**Q.** For `O=C(O)c1ccc2c(c1)nc(-c1ccc(OCc3cc(Cl)ccc3-c3ccccc3)cc1F)n2C1CCCCC1` [Example 146, 2-{4-(3-chloro-6-phenylbenzyloxy)-2-fluorophenyl}-1-cyclohexylbenzimidazole-5-carboxylic acid], which IC50 is on record?
**A.** 43 nM

**Q.** With `O=C(O)c1ccc2c(c1)nc(-c1ccc(OCc3cc(Cl)ccc3-c3cc(Cl)cc(Cl)c3)cc1)n2C1CCCCC1` [Example 147, 2-{4-[3-chloro-6-(3,5-dichlorophenyl)benzyloxy]phenyl}-1-cyclohexylbenzimidazole-5-carboxylic acid] as the molecule, how does the IC50 read?
**A.** 310 nM

**Q.** How did the IC50 turn out when `O=C(O)c1ccc2c(c1)nc(-c1ccc(OC(c3ccc(F)cc3)c3ccc(F)cc3)cc1F)n2C1CCCCC1` [Example 148, 2-{4-[bis(4-fluorophenyl)methoxy]-2-fluorophenyl}-1-cyclohexylbenzimidazole-5-carboxylic acid] was run?
**A.** 38 nM

**Q.** `O=C(O)c1ccc2c(c1)nc(-c1ccc(Oc3ccc(OCc4ccccc4)cc3)cc1Cl)n2C1CCCCC1` [Example 149, 2-{4-(4-benzyloxyphenoxy)-2-chlorophenyl}-1-cyclohexylbenzimidazole-5-carboxylic acid] was tested. Which IC50 did it give?
**A.** 150 nM

**Q.** For `O=C(O)c1ccc2c(c1)nc(-c1ccc(Oc3ccc(OCc4ccccc4)cc3)cc1C(F)(F)F)n2C1CCCCC1` [Example 150, 2-{4-(4-benzyloxyphenoxy)-2-trifluoromethylphenyl}-1-cyclohexylbenzimidazole-5-carboxylic acid], which IC50 is on record?
**A.** 240 nM
